Experimental data reported in patent US20260273028A1, “PEROXIDASE COMPOSITIONS CONTAINING IMPROVED ENHANCING AGENTS” (FLEN HEALTH PHARMA NV, priority 2022, published 2026).

How the values were obtained:
Format in all cases: cell-based
[1] = test system: A. niger (ATCC®16404 ™); test: Microbial challenge testing in alginogel with GOX+LPO; conditions: for reduction in absolute A. niger counts compared to guaiacol in the same concentration: alginogel with GOX+LPO; for antimicrobial activity of enhancing candidate only against A. niger: alginogel without enzymes, highest concentration tested; for reduction in absolute A. niger counts compared to reference (enzymes only): alginogel, 0.0075% GOX+LPO
[2] = test system: C. albicans (ATCC®10231™); test: as above; conditions: for reduction in absolute C. albicans counts compared to guaiacol in the same concentration: alginogel with GOX+LPO, enhancer 0.0005%; for antimicrobial activity of enhancing candidate only against C. albicans: alginogel without enzymes, highest concentration tested; for reduction in absolute C. albicans counts compared to reference (enzymes only): alginogel, 0.0075% GOX+LPO
[3] = test system: Pseudomonas aeruginosa ATCC®9027™; test: MIC determination, broth microdilution, GOX+LPO with potentiator candidate; conditions: P. aeruginosa
Experimental: (§1) The minimum inhibitory concentration (MIC) is defined as the lowest concentration of an antimicrobial agent that results in a complete inhibition of microbial growth (determined via visual evaluation or absorbance measurements) after overnight incubation. This endpoint measurement is used to define the microbial susceptibility towards an antimicrobial agent. Here, the antimicrobial agent is a combination of the natural enzymes GOX+LPO.
(§2) To determine the MIC of the described combinations, a classical broth microdilution assay was used to determine the susceptibility of a series of microbes commonly detected in infected wounds, including (a) the Gram-positive bacterium Staphylococcus aureus ATCC® 6538™ (results shown below), (b) the Gram-negative bacterium Pseudomonas aeruginosa ATCC®9027™ (results shown below), (c) the yeast Candida albicans ATCC®10231™ (results shown below), and (d) the fungus Aspergillus niger ATCC®16404™ (results shown below). In brief, a […] serial dilution of the enzymatic GOX+LPO solution was prepared in a transparent, flat-bottomed 96-well test plate with final concentrations ranging from 0.005 to 0.00000977% (v/v). To each well, a fixed volume of the enzymatic substrate containing 3,3% (w/v) glucose and 0,084% (w/v) potassium iodide, as well as the microbial inoculum with an OD600 of 0.1 was added. In the event the enzyme combination was evaluated in the presence of a potentiator candidate, the latter was added together with the enzymatic substrate in a final concentration ranging from 100 to 0,00125% (v/v). For each combination evaluated, a blank (no addition of microbial inoculum) was included. Positive (inoculum only) and negative (background solution only) were included to evaluate the performance of the test and to select the enzymatic GOX+LPO concentration at which no microbial growth is detected (i.e., absorbance equal to that of the background solution only). Then, the 96-well test plate was incubated for 24 hours at 37° C. (S. aureus, P. aeruginosa and C. albicans) or 25° C. (A. niger). After incubation, the absorbance of each well was measured using a plate spectrophotometer (Spectramax ID3, Molecular Devices). For each combination evaluated, this test was repeated at least 5 times. The collected data were further analyzed in MS Excel. Mean absorbance data were visualized in a table format in which the MIC was highlighted.

[4] = test system: Aspergillus niger ATCC®16404™; test: as above; conditions: A. niger; enhancer 1%-0.01%
Experimental: as §1, §2

[5] = test system: Staphylococcus aureus ATCC® 6538™; test: as above; conditions: S. aureus
Experimental: as §1, §2

[6] = test system: Staphylococcus aureus ATCC® 6538™; test: Absolute microbial counts in function of enzyme solution concentration; conditions: 0.005%-0.0000391% (v/v) GOX+LPO

## NC(=O)CC[C@H](N)C(=O)O [Glutamine, glutamine]
[1]; enhancer 0.0025%
  reduction in absolute A. niger counts compared to guaiacol in the same concentration: faster complete reduction
  reduction in absolute A. niger counts compared to reference (enzymes only): faster complete reduction
[1]
  antimicrobial activity of enhancing candidate only against A. niger: no antimicrobial activity
[2]
  reduction in absolute C. albicans counts compared to guaiacol in the same concentration: faster complete reduction
  antimicrobial activity of enhancing candidate only against C. albicans: no antimicrobial activity
[2]; enhancer 0.0025%
  reduction in absolute C. albicans counts compared to reference (enzymes only): immediate entire reduction
[2]; enhancer 0,00125-0,0005%
  reduction in absolute C. albicans counts compared to reference (enzymes only): faster complete reduction
[3]; enhancer 0,1%
  MIC: GOX+LPO enzyme solution needed to completely inhibit growth: 0.000625 % (v/v)
  increase in MIC compared to reference: 2 ×
[3]; enhancer 1%
  MIC: GOX+LPO enzyme solution needed to completely inhibit growth: 0.000156 % (v/v)
  increase in MIC compared to reference: 8 ×
[4]
  MIC: GOX+LPO enzyme solution needed to completely inhibit growth: 0.000156 % (v/v)
  increase in MIC compared to reference: 2 ×
[5]; enhancer 1% to 0.01%
  MIC: GOX+LPO enzyme solution needed to completely inhibit growth: 0.0000391 % (v/v)
  increase in MIC compared to reference or guaiacol solution: 2 ×
[6]; enhancer 0.1%
  reduction in absolute S. aureus counts compared to reference and guaiacol solution: stronger reduction

## N[C@@H](CO)C(=O)O [Serine, serine]
[1]; enhancer 0.0005%
  reduction in absolute A. niger counts compared to guaiacol in the same concentration: faster complete reduction
[1]
  antimicrobial activity of enhancing candidate only against A. niger: no antimicrobial activity
[1]; enhancer 0,0025-0,0005%
  reduction in absolute A. niger counts compared to reference (enzymes only): faster complete reduction
[2]
  reduction in absolute C. albicans counts compared to guaiacol in the same concentration: faster complete reduction
  antimicrobial activity of enhancing candidate only against C. albicans: no antimicrobial activity
[2]; enhancer 0.00125%
  reduction in absolute C. albicans counts compared to reference (enzymes only): faster complete reduction
[2]; enhancer 0.0025%
  reduction in absolute C. albicans counts compared to reference (enzymes only): immediate entire reduction
[3]; enhancer 0.0025-0.00125%
  MIC: GOX+LPO enzyme solution needed to completely inhibit growth: 0.000625 % (v/v)
  increase in MIC compared to reference or guaiacol solution: 2 ×
[3]; enhancer 0.01-0.005%
  MIC: GOX+LPO enzyme solution needed to completely inhibit growth: 0.000625 % (v/v)
  increase in MIC compared to reference or guaiacol solution: 2 ×
[4]
  MIC: GOX+LPO enzyme solution needed to completely inhibit growth: 0.000156 % (v/v)
  increase in MIC compared to reference: 2 ×
[5]; enhancer 0.0025% to 0.00125%
  MIC: GOX+LPO enzyme solution needed to completely inhibit growth: 0.0000391 % (v/v)
  increase in MIC compared to reference or guaiacol solution: 2 ×
[5]; enhancer 0.01% to 0.005%
  MIC: GOX+LPO enzyme solution needed to completely inhibit growth: 0.0000391 % (v/v)
  increase in MIC compared to reference or guaiacol solution: 2 ×
[5]; enhancer 10%
  MIC: GOX+LPO enzyme solution needed to completely inhibit growth: ≤ 0.0000977 % (v/v)
  increase in MIC compared to reference or guaiacol solution: ≥ 6 ×
[6]; enhancer 0.0025-0.00125%
  reduction in absolute S. aureus counts compared to reference and guaiacol solution: stronger reduction
[6]; enhancer 10-0.005%
  reduction in absolute S. aureus counts compared to reference and guaiacol solution: stronger reduction
